Assay [1] has as its system PTI-specific marker genes in Arabidopsis leaves. Kind of assay: Gene expression analysis of PTI marker genes by qRT-PCR. The format is in vivo, Arabidopsis thaliana. To be noted: infiltrated leaves, 1.0 μM elicitor. The procedure: RNA extraction and gene expression analysis by qRT-PCR: Total RNA was extracted from the entire infiltrated leaf using RNeasy plant mini kit (74104; Qiagen) with DNase I (79254; Qiagen) treatment. cDNA synthesis and RT-PCR were performed as described (Park et al., 2019). Expression of the Arabidopsis Act2 (At3g18780) was used as an internal control. Primer pairs for quantitative RT-PCR were designed using Primer-BLAST (https://www.ncbi.nlm.nih.gov/tools/primer-blast/index.cgi) or manually by eye.
flg22 and elf18 were used to induce plant innate immunity responses without related pathogenic symptoms (Bektas & Eulgem, 2015). To reduce variability between biological samples, Arabidopsis wild-type (Col-0) and mutant plants were grown under short-day conditions for about 5-6 weeks with about 17-18 leaves (Farmer et al., 2013; Kurenda et al., 2019) (FIG. 1A). The abaxial side of leaf 7th or 8th was infiltrated with a needleless syringe containing (50 μl) water, 1.0 μM flg22 or 1.0 μM elf18 (FIG. 1B). […] However, compared to mock infiltration, infiltration of either elicitor induced expression of PTI-specific marker genes of the PTI pathway but with different kinetics (FIGS. 3A-3C). […] Expression of most activated genes returned to basal levels by 24 hours (FIGS. 3A-3C) although several genes (PR1, WRYK29, and WRKY53) still maintained high expression levels at this time point.
Background: Quantitative PCR measures a nucleic acid by following its amplification.

Assay [2] relates to PTI response in Arabidopsis thaliana (Col-0) leaves. Kind of assay: Raman spectroscopy of elicitor-infiltrated leaves, Elicitor Response Factor (ERF). The format is in vivo. The conditions noted are these: WT, 1 μM elicitor, distal region (DR).
For assay [3] the test system is unchanged. The description is as above. Format: in vivo. To be noted: for ERF (Elicitor Response Factor) value: WT Col-0, 1 μM elicitor, proximal region, 10 hpi; for ERF value: proximal region (PR), 48 and 72 hpi. The procedure: Plant growth and elicitor/pathogen infiltration: Arabidopsis thaliana (Col-0) wild-type (WT) and mutants including fls2 (salk_062054), efr-2 (salk_068675), bak1 (salk_116202), bik1 (salk_005291), rbohd (salk_083046), pub12/13 (Zhou et al., 2018) and pub25/26 (Wang et al., 2018) were used. Ten-day old seedlings grown on soil were transferred to a growth room at 70% humidity and 21° C. with a 10-h-light/14-h-dark photoperiod (short-day condition). Light intensity was 100 μmol/m^2s^−1. Five to 6 week-old plants with about 17-18 leaves were used. Flg22 contains the 22-amino acid sequence […] (SEQ ID NO:1) corresponding to a conserved motif of the amino terminus of flagellin from Pseudomonas species. Elf18 contains the sequence Ac[…] (SEQ ID NO:2) corresponding to the conserved N-terminal 18-amino acid peptide of the bacterial protein elongation factor Tu (EF-Tu). These peptides (Axil Scientific Pte Ltd) were dissolved in sterile H2O to a concentration of 5 mM and aliquots of 100 μM stock solution were stored at −20° C. 3-hydroxydecanoic acid (Sigma, H3648) (Kutschera et al., 2019) was dissolved in ethanol to a concentration of 5 mM, and Chitin, GlcNacβ1-4[GlcNacβ1-4GlcNAc]5GlcNAc (ELICITYL, GLU437) was dissolved in water to a concentration of 5 mM. Aliquots of 100 μM stock solutions were stored at −20° C.
Custom-built Raman spectroscopy system and spectral data analysis: The Raman spectroscopy system with an 830 nm excitation wavelength was previously described (Huang et al., 2020). The Raman shift axis was calibrated using a polystyrene sample (Creely et al., 2005) and Raman spectra were recorded in the range of 400 cm^−1-1700 cm^−1. The 830 nm excitation wavelength has the advantage of deeper penetration depth and generating comparatively lower fluorescence background signal from the leaf tissue, resulting in spectra with a higher signal to noise ratio (SNR). The pre-processing of the Raman spectra consisted of cosmic ray removal and smoothing with the Savitzky-Golay filter function (MATLAB Inc., USA) with 5th order polynomial and frame length of 11. The Raman spectra presented here were obtained after removing any residual fluorescence background using a polynomial subtraction method with non-negative constraints (Lieber & Mahadevan-Jansen, 2003).
For Arabidopsis, two plants from each independent biological sample were investigated (Huang et al., 2020). The 7th or 8th leaf of 5-6 week-old plants were used for infiltrations (FIGS. 1A-1E) At the designated time after infiltrations, leaf discs (6 mm diameter) were excised with a puncher from regions proximal to the infiltrated sites (FIG. 2A). Two leaf discs were obtained from each elicitor-treated leaf, one from the left and the other from the right side of the central leaf vein. A total of 4 leaf discs were analyzed for each genotype per experiment. The leaf discs were placed with a drop of water between a fused silica slide of thickness 0.5 mm and a fused silica coverslip, which was 100 μm thick. Three locations were measured in each leaf disc, with 5 Raman spectra acquired per location and an exposure time of 10 s per spectrum. Thus, an average Raman spectrum of an independent biological sample was obtained from the mean of total 60 Raman spectra. The experiments were repeated with 3-4 independent biological samples.
A custom-built near infrared excitation Raman instrument (FIG. 1E) to measure Raman spectra from mock- or elicitor-infiltrated leaf samples (FIGS. 2B-2C). […]

[4] abbreviates: fls2 mutant, 24 hpi, 1 μM elicitor.

Ends that are not written are not given here.

On to “AcSKEKFERTKPHVNVGTIG (SEQ ID NO:2) (Ac-SKEKFERTKPHVNVGTIG; listed as Pseudomonas sp.) [elf18, conserved N-terminal 18-amino acid peptide of the bacterial protein elongation factor Tu (EF-Tu)]”, for which the “innate immunity response (gene expression and callose deposition data together)” value in assay [1] was “induced rapid and robust innate immunity response”. The ERF value result is recorded as “Lower ERF value” in assay [2] and “decreased to almost zero” in assay [3] (WT, 1 μM elicitor). In addition, the “ERF (Elicitor Response Factor) value” in assay [3] is 0.63×10^4. The “Raman peak at 1065 cm^−1” value in assay [3] (WT, 24 hpi) is “specifically resulted in changes”. The Raman/ERF response result in assay [3] (setting [4]) is reported as “remained responsive”.
For “QRLSTGSRINSAKDDAAGLQIA (SEQ ID NO:1) (listed as Pseudomonas sp.) [flg22]”, the “innate immunity response (gene expression and callose deposition data together)” value in assay [1] was “induced rapid and robust innate immunity response”. The ERF value entry is listed as “Low ERF values” in assay [2] and “decreased to almost zero” in assay [3] (WT, 1 μM elicitor). Besides, in assay [3], the “ERF (Elicitor Response Factor) value” is reported as 1.12×10^4. Moreover, the “increase of ERF value from 10 hpi to 24 hpi” value in assay [3] (WT, 1 μM elicitor) is “about 8 times”. Besides, the “Raman peak intensity at 789.7 cm^−1” value in assay [3] (WT, 24 hpi) is recorded as “statistically significant change”. Besides, the Raman/ERF response entry in assay [3] (efr-2 mutant, 24 hpi, 1 μM elicitor) is on record as “responded”; in assay [3] (setting [4]) it was “refractory”.

Values taken from patent publication US20260243686A1, “REAL TIME DETECTION AND QU[…] PLANT INNATE IMMUNITY RESPONSE USING RAMAN SPECTROSCOPY” (TEMASEK LIFE SCIENCES […], priority 2021, published 2026).
